Experimental data: patent US7470781B2, “Formulation of stabilized cationic transfection agent(s)/nucleic acid particles” (Aventis Pharma S.A., priority 1997, dated 2008)

What was measured:
[1] = Structure of complexes by low-angle X-ray diffraction and cryo-transmission electron microscopy; assay type: physicochemical
Experimental: The cryo-transmission electron microscopy (cryo-TEM) experiments are carried out with 7 μl of prepared samples containing 0.5 mg of DNA/ml, which are placed on a carbon-coated copper grid covered with a membrane with holes. The grids are then immersed in liquid ethane so as to convert the liquid water to vitrified water. Next, this grid is installed inside a specimen holder cooled with liquid nitrogen and introduced into the microscope (Philips CM12) for visualization.
The low-angle X-ray diffraction experiments are carried out in the synchrotron (LURE) in Orsay (France) on the D43 line. The samples are prepared at 0.5 mg DNA/ml and then centrifuged. The pellets are deposited in a cell in which the two windows consist of kapton. A germanium-containing monochromator (111 reflection) allows the selection of the wavelength of 0.138 nm.
In this study, we have determined, by low-angle X-ray diffraction and by transmission electron microscopy, the structure of the cationic lipid transfectant/DNA complexes.

[2] = Size (hydrodynamic diameter) of cationic lipid/DNA complexes by photon correlation spectroscopy; assay type: physicochemical; details: component alone incubated with 1% (weight/volume) poloxalkol
Experimental: The measurement of the hydrodynamic diameter is carried out with a Coulter N4Plus, using plastic cells (four transparent faces) filled with 800 μl of the various solutions, the measurement being carried out at […] in unimodal mode.
The plasmid (10 μg/ml) is placed in a solution containing 150 mM NaCl and various concentrations of poloxalkol. The lipofectant RPR 120535 is then added in order to obtain a charge ratio (+/−) 2.5. The size of the complexes is then measured by photon correlation spectroscopy according to the procedure described in Methods.
The plasmid (10 μg/ml) is placed in a solution containing 150 mM NaCl at various concentrations of poloxalkol. RPR 120531 is then added in order to obtain a charge ratio (+/−) 2.5. The size of the complexes is measured by photon correlation spectroscopy (Coulter N4plus).
Table V below represents the diameter, in nm, of the RPR 120535/DNA complexes, at the charge ratio of 2.75 (+/−) and containing 0.25 mg of DNA/ml in 150 mM NaCl, stabilized with various nonionic surface-active agents.

mice = test: Transfection in vivo after systemic injection, luciferase activity in organs; set-up: unit not given here; details: balbc mouse, 24 hours after tail vein injection
Experimental: The in vivo transfections are carried out by injecting, into the vein of the tail of 30-day-old mice, 200 μl of a solution containing 0.2 mg DNA/ml combined with a cationic lipid vector. 24 hours after the injection, the mice are humanely killed and then various organs are recovered (lung, liver, heart, kidney, spleen). These organs are then ground in a lysis buffer with the aid of an Ultraturax. The ground products obtained are then centrifuged, and then 10 μl of the supernatant is collected in order to assay the luciferase activity.
We compared the gene transfer efficiencies after systemic injections of precipitated RPR 120535/DNA complexes, and of these same complexes stabilized by the addition of Pluronic F68®. […] On the other hand, when the particles are colloidally stabilized by the addition of F68®, the luciferase activity is increased by a factor of 10 in the lungs, and expression is observed in other tissues (liver, heart).
Identical experiments to those described above were carried out using another lipid: BGTC. Similar results were obtained, namely an improvement in gene transfer in the lungs and a measurable expression in the liver, the heart and the kidneys. […] Indeed, given that nonviral lipid vectors are used, these complexes might have been expected to be destabilized by the presence of these endogenous lipids in a large quantity. The results of in vivo transfection of BGTC/DOPE/DNA complexes in the absence or in the presence of poloxalkol are assembled in Table IV below: […]

SMILES	periodicity of lamellar structure ([1]; in the absence and in the presence of poloxalkol) [nm]	size of complexes ([1]; presence of poloxalkol)	particles detectable by Quasi-Elastic Diffusion of light [2]	luciferase activity, Heart (mice; 0% F68)	luciferase activity, Kidneys (mice; 0% F68)	luciferase activity, Liver (mice; 0% F68)	luciferase activity, Lungs (mice; 0% F68)	luciferase activity, Heart (mice; 10% F68)	luciferase activity, Kidneys (mice; 10% F68)	luciferase activity, Liver (mice; 10% F68)	luciferase activity, Lungs (mice; 10% F68)
CC(C)CCC[C@@H](C)[C@H]1CC[C@H]2[C@@H]3CC=C4C[C@@H](OC(=O)NCCN(CCN=C(N)N)CCN=C(N)N)CC[C@]4(C)[C@H]3CC[C@]12C [BGTC]	6.5	small-sized complexes	–	–	–	–	–	–	–	–	–
CCCCCCCCCCCCCCCCCCN(CCCCCCCCCCCCCCCCCC)C(=O)CNC(=O)CNCCCNCCCCNCCCN [RPR 120535, H2N(CH2)3NH(CH2)4NH (CH2)3NHCH2COGlyN[(CH2)17CH3]2]	–	–	does not form particles	0	0	0	2 ± 0.9	1 ± 0.4	0	2 ± 3	14 ± 0.9
